The results in this text go back to patent US10377753B2, “Substituted 4-azaindoles and their use as GluN2B receptor modulators” (Janssen Pharmaceutica NV, priority 2015, dated 2019).

The target in the assay is cloned human NR1/NR2B ion channels (Homo sapiens (Human), UniProt Q05586+Q13224). Description: HNR2BC: effects of test articles on cloned human NR1/NR2B ion channels expressed in mammalian cells (FLIPR calcium flux). In kind it is cell-based. To be noted: Table 5. A digest of the protocol:
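In a stable Tet-On-induced cell line expressing human GluN1/GluN2B, Calcium 5-loaded cells were preincubated 5 min with compound, then stimulated 5 min with glutamate at ~EC80 plus 10 μM glycine, in pH 7.4 HEPES buffer. FLIPR calcium fluorescence was normalized to control wells.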

The mark [1] stands for this setting: cloned human NR1/NR2B ion channels.

Each structure is given as a SMILES string. Counter-ions that a name gives are not always drawn.

Chain of cloned human NR1/NR2B ion channels (Q13224 27-1484, other chains not shown): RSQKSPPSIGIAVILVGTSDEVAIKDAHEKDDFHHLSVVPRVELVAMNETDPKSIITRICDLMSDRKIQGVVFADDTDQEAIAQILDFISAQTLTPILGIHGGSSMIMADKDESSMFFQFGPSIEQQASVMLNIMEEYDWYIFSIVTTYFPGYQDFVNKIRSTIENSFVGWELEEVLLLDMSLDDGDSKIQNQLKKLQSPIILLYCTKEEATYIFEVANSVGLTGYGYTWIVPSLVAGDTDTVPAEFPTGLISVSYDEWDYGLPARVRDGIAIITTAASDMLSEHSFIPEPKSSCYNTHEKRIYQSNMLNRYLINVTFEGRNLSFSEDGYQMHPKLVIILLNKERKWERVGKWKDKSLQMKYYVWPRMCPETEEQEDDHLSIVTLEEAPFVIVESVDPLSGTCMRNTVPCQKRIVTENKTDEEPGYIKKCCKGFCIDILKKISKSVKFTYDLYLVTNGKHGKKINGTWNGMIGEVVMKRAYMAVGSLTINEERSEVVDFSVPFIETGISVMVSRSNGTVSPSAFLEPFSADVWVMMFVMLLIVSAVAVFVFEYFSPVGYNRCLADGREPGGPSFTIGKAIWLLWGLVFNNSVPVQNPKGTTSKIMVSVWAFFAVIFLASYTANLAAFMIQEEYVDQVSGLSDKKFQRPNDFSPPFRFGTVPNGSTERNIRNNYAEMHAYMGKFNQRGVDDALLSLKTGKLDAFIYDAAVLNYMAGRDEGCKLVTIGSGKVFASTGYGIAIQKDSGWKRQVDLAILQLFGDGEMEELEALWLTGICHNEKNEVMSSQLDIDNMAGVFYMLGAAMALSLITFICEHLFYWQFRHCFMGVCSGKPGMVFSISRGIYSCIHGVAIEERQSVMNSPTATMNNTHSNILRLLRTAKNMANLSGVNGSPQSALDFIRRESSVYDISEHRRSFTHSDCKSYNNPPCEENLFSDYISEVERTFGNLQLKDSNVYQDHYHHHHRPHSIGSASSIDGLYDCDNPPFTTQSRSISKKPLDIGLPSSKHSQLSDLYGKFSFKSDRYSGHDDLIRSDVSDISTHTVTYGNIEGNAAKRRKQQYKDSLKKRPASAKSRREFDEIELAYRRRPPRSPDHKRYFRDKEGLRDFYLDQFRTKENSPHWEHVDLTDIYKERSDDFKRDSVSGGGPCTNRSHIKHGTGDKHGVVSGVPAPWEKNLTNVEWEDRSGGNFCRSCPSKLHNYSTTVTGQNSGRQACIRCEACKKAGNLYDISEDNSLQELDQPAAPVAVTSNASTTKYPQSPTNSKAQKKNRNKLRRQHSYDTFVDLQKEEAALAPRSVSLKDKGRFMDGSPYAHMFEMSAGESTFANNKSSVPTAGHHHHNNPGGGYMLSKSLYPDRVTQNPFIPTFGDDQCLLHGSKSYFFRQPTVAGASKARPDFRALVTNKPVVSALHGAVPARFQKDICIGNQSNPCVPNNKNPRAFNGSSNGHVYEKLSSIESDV

For `Cc1cc(-c2cnc3c(F)cn(CC(=O)C(C)C)c3c2)ccc1F` [Example 324, 1-[3-Fluoro-6-(4-fluoro-3-methyl-phenyl)pyrrolo[3,2-b]pyridin-1-yl]-3-methyl-butan-2-one], the IC50 (cloned human NR1/NR2B) was 100 nM.
As to `O=C(Cn1cc(Cl)c2ncc(-c3ccc(F)c(F)c3)cc21)N1CCC1` [Example 29, 1-(Azetidin-1-yl)-2-[3-chloro-6-(3,4-difluorophenyl)pyrrolo[3,2-b]pyridin-1-yl]ethanone], the IC50 (cloned human NR1/NR2B) was 20 nM.
Consider `O=C(Cn1ccc2ncc(-c3ccc(F)c(Cl)c3)cc21)N1CCC1` [Example 456, 1-(Azetidin-1-yl)-2-[6-(3-chloro-4-fluoro-phenyl)pyrrolo[3,2-b]pyridin-1-yl]ethanone], for which the IC50 under setting [1] was 63.1 nM.
On to `O=C(Cn1ccc2ncc(-c3cccc(F)c3)cc21)N1CCOCC1` [Example 87, 2-[6-(3-Fluorophenyl)pyrrolo[3,2-b]pyridin-1-yl]-1-morpholino-ethanone], for which the IC50 (cloned human NR1/NR2B) is 1000 nM.
On the same count and under the same terms, the result for `O=C(Cn1ccc2ncc(-c3cccc(C(F)(F)F)c3F)cc21)NC1CC1` [Example 352, N-Cyclopropyl-2-[6-[2-fluoro-3-(trifluoromethyl)phenyl]pyrrolo[3,2-b]pyridin-1-yl]acetamide trifluoroacetate salt] reads 39.8 nM; that for `Cc1cc(-c2cnc3ccn(C[S+](C)[O-])c3c2)ccc1F` (racemic) [Example 331, (R/S)-6-(4-Fluoro-3-methyl-phenyl)-1-(methylsulfinylmethyl)pyrrolo[3,2-b]pyridine], 3980 nM.
On to `O=C(Cn1cc(Cl)c2ncc(-c3ccc(Cl)s3)cc21)N1CC(F)C1` [Example 413, 2-[3-Chloro-6-(5-chloro-2-thienyl)pyrrolo[3,2-b]pyridin-1-yl]-1-(3-fluoroazetidin-1-yl)ethanone], for which, under setting [1], the IC50 was 50.1 nM.
Still for that read-out and setting: the result for `Cc1cn(CC(=O)N2CCCC2)c2cc(-c3cccc(C(F)(F)F)c3F)cnc12` [Example 590, 2-[6-[2-Fluoro-3-(trifluoromethyl)phenyl]-3-methyl-pyrrolo[3,2-b]pyridin-1-yl]-1-pyrrolidin-1-yl-ethanone] reads 316 nM; that for `Cc1cn(CC(=O)N2CCC2)c2cc(-c3cccc(C(F)(F)F)c3F)cnc12` [Example 585, 1-(Azetidin-1-yl)-2-[6-[2-fluoro-3-(trifluoromethyl)phenyl]-3-methyl-pyrrolo[3,2-b]pyridin-1-yl]ethanone], 251 nM.
For `O=C(Cn1cc(F)c2ncc(-c3ccc(F)cc3)cc21)N1CCC1` [Example 302, 1-(Azetidin-1-yl)-2-[3-fluoro-6-(4-fluorophenyl)pyrrolo[3,2-b]pyridin-1-yl]ethanone], the IC50 (cloned human NR1/NR2B) was 31.6 nM.
The same measure, in the same setting: the result for `O=C(Cn1cc(Br)c2ncc(-c3ccc(F)cc3)cc21)N1CCCC1` [Example 19, 2-[3-Bromo-6-(4-fluorophenyl)pyrrolo[3,2-b]pyridin-1-yl]-1-pyrrolidin-1-yl-ethanone] reads 31.6 nM; that for `Cc1cc2ncc(-c3ccccc3)cc2n1CC(=O)N1CCC1` [Example 47, 1-(Azetidin-1-yl)-2-(2-methyl-6-phenyl-pyrrolo[3,2-b]pyridin-1-yl)ethanone], 79.4 nM; that for `O=C(Cn1cc(F)c2ncc(-c3ccc(F)cc3)cc21)N1CC(F)C1` [Example 308, 1-(3-Fluoroazetidin-1-yl)-2-[3-fluoro-6-(4-fluorophenyl)pyrrolo[3,2-b]pyridin-1-yl]ethanone], 63.1 nM.
With `O=C(Cn1cc(Cl)c2ncc(-c3ccc(F)cc3)cc21)N1CC(F)C1` [Example 58, 2-[3-Chloro-6-(4-fluorophenyl)pyrrolo[3,2-b]pyridin-1-yl]-1-(3-fluoroazetidin-1-yl)ethanone], under “cloned human NR1/NR2B”, the IC50 is 25.1 nM.
The same measure, in the same setting: the result for `Cc1cc(-c2cnc3ccn(Cc4ccncc4)c3c2)ccc1F` [Example 179, 6-(4-Fluoro-3-methyl-phenyl)-1-(4-pyridylmethyl)pyrrolo[3,2-b]pyridine trifluoroacetate salt] reads 50.1 nM; that for `Cc1cc(-c2cnc3c(Cl)cn(CC(=O)N4CC(F)C4)c3c2)ccc1F` [Example 26, 2-[3-Chloro-6-(4-fluoro-3-methyl-phenyl)pyrrolo[3,2-b]pyridin-1-yl]-1-(3-fluoroazetidin-1-yl)ethanone], 39.8 nM.
As to `O=C(Cn1ccc2ncc(-c3cccc(Cl)c3)cc21)N1CC(F)C1` [Example 465, 2-[6-(3-Chlorophenyl)pyrrolo[3,2-b]pyridin-1-yl]-1-(3-fluoroazetidin-1-yl)ethanone], under setting [1], the IC50 is 79.4 nM.
For the compound `Cc1csc(-c2cnc3ccn(Cc4cccnn4)c3c2)c1` [Example 130, 6-(4-Methyl-2-thienyl)-1-(pyridazin-3-ylmethyl)pyrrolo[3,2-b]pyridine], the pIC50 (cloned human NR1/NR2B) stood at 7.7.
As for `O=C(Cn1cc(Cl)c2ncc(-c3cccc(C(F)(F)F)c3)cc21)N1CC(F)(F)C1` [Example 36, 2-[3-Chloro-6-[3-(trifluoromethyl)phenyl]pyrrolo[3,2-b]pyridin-1-yl]-1-(3,3-difluoroazetidin-1-yl)ethanone], the IC50 (cloned human NR1/NR2B) was 100 nM.
On to `CCc1ccc(-c2cnc3ccn(CC(=O)N4CC(F)C4)c3c2)s1` [Example 281, 2-[6-(5-Ethyl-2-thienyl)pyrrolo[3,2-b]pyridin-1-yl]-1-(3-fluoroazetidin-1-yl)ethanone], for which the IC50 (cloned human NR1/NR2B) is 20 nM.
As for `CCN(C)C(=O)Cn1cc(C)c2ncc(-c3ccccc3)cc21` [Example 577, N-Ethyl-N-methyl-2-(3-methyl-6-phenyl-pyrrolo[3,2-b]pyridin-1-yl)acetamide], the concentration for half-maximal inhibition (IC50) under setting [1] was 200 nM.
Regarding `O=C(Cn1cc(F)c2ncc(-c3ccc(F)cc3)cc21)N1CCOCC1` [Example 305, 2-[3-Fluoro-6-(4-fluorophenyl)pyrrolo[3,2-b]pyridin-1-yl]-1-morpholino-ethanone], where the note is “cloned human NR1/NR2B”, the IC50 was 79.4 nM.
Take `Cc1csc(-c2cnc3ccn(CC(=O)N4CCCC4)c3c2)c1` [Example 369, 2-[6-(4-Methyl-2-thienyl)pyrrolo[3,2-b]pyridin-1-yl]-1-pyrrolidin-1-yl-ethanone]: the IC50 under setting [1] was 20 nM.
`CCc1ccc(-c2cnc3c(F)cn(CC(=O)N4CC(F)C4)c3c2)s1` [Example 398, 2-[6-(5-Ethyl-2-thienyl)-3-fluoro-pyrrolo[3,2-b]pyridin-1-yl]-1-(3-fluoroazetidin-1-yl)ethanone trifluoroacetate salt]: the IC50 under setting [1] was 39.8 nM.
Same read-out and setting: the result for `O=C(Cn1cc(F)c2ncc(-c3ccc(F)c(F)c3F)cc21)N1CCC1` [Example 477, 1-(Azetidin-1-yl)-2-[3-fluoro-6-(2,3,4-trifluorophenyl)pyrrolo[3,2-b]pyridin-1-yl]ethanone] reads 50.1 nM; that for `Cc1cn(CC(=O)N2CCCC2)c2cc(-c3ccc(F)c(F)c3F)cnc12` [Example 591, 2-[3-Methyl-6-(2,3,4-trifluorophenyl)pyrrolo[3,2-b]pyridin-1-yl]-1-pyrrolidin-1-yl-ethanone], 126 nM.
Consider `CC(C)(C)C(=O)Cn1ccc2ncc(-c3ccc(F)c(F)c3)cc21` [Example 140, 1-[6-(3,4-Difluorophenyl)pyrrolo[3,2-b]pyridin-1-yl]-3,3-dimethyl-butan-2-one], for which, for the setting “cloned human NR1/NR2B”, the IC50 was 31.6 nM.
As to `O=C(Cn1ccc2ncc(-c3ccc(F)cc3)cc21)N1CC[C@H](F)C1` [Example 294, 2-[6-(4-Fluorophenyl)pyrrolo[3,2-b]pyridin-1-yl]-1-[(3S)-3-fluoropyrrolidin-1-yl]ethanone trifluoroacetate salt], the IC50 (cloned human NR1/NR2B) is 316 nM.
With `Cc1cccc(-c2cnc3c(C)cn(CC(=O)N(C)C)c3c2)c1` [Example 572, N,N-Dimethyl-2-[3-methyl-6-(m-tolyl)pyrrolo[3,2-b]pyridin-1-yl]acetamide], the IC50 under setting [1] was 79.4 nM.
Still for that read-out and setting: the same measure for `Cc1cn(CC(=O)N2CCC2)c2cc(-c3cccc(C(F)(F)F)c3)cnc12` [Example 552, 1-(Azetidin-1-yl)-2-[3-methyl-6-[3-(trifluoromethyl)phenyl]pyrrolo[3,2-b]pyridin-1-yl]ethanone]: 79.4 nM.
With `O=C(Cn1ccc2ncc(-c3cc(F)c(F)c(F)c3)cc21)N1CC(F)(F)C1` [Example 124, 1-(3,3-Difluoroazetidin-1-yl)-2-[6-(3,4,5-trifluorophenyl)pyrrolo[3,2-b]pyridin-1-yl]ethanone], for the setting “cloned human NR1/NR2B”, the IC50 was 31.6 nM.
Take `CCN(C)C(=O)Cn1ccc2ncc(-c3ccc(F)c(C)c3)cc21` [Example 296, N-Ethyl-2-[6-(4-fluoro-3-methyl-phenyl)pyrrolo[3,2-b]pyridin-1-yl]-N-methyl-acetamide]: for the setting “cloned human NR1/NR2B”, the IC50 was 25.1 nM.
Take `O=C(Cn1cc(Cl)c2ncc(-c3ccc(Cl)s3)cc21)N1CCC1` [Example 381, 1-(Azetidin-1-yl)-2-[3-chloro-6-(5-chloro-2-thienyl)pyrrolo[3,2-b]pyridin-1-yl]ethanone]: the IC50 under setting [1] was 15.8 nM.
As for `N#CC1CN(C(=O)Cn2ccc3ncc(-c4ccc(F)cc4)cc32)C1` [Example 212, 1-[2-[6-(4-Fluorophenyl)pyrrolo[3,2-b]pyridin-1-yl]acetyl]azetidine-3-carbonitrile], the IC50 (cloned human NR1/NR2B) was 316 nM.
For `O=C(Cn1cc(Cl)c2ncc(-c3ccccc3F)cc21)N1CC(F)C1` [Example 535, 2-[3-Chloro-6-(2-fluorophenyl)pyrrolo[3,2-b]pyridin-1-yl]-1-(3-fluoroazetidin-1-yl)ethanone], the IC50 under setting [1] was 200 nM.
Consider `Cc1cccc(-c2cnc3ccn(CC(=O)N4CC(F)C4)c3c2)c1F` [Example 454, 1-(3-Fluoroazetidin-1-yl)-2-[6-(2-fluoro-3-methyl-phenyl)pyrrolo[3,2-b]pyridin-1-yl]ethanone], for which, under setting [1], the IC50 was 25.1 nM.
Consider `Cc1ccc(-c2cnc3ccn(CC(=O)N4CCC4)c3c2)cc1` [Example 73, 1-(Azetidin-1-yl)-2-[6-(p-tolyl)pyrrolo[3,2-b]pyridin-1-yl]ethanone], for which the IC50 (cloned human NR1/NR2B) is 39.8 nM.
On the same count and under the same terms, the result for `O=C(Cn1cc(Cl)c2ncc(-c3ccc(F)cc3)cc21)N1CC(F)(F)C1` [Example 57, 2-[3-Chloro-6-(4-fluorophenyl)pyrrolo[3,2-b]pyridin-1-yl]-1-(3,3-difluoroazetidin-1-yl)ethanone] reads 31.6 nM.
